Test results as given in paper PMC10583239 (CPT: Pharmacometrics & Systems Pharmacology, 2023).
pKi: −log10 of the molar value. Marks after values point to notes of the source that are not given here.

How the values were obtained:
CYP2D6 = CYP2D6 (Homo sapiens, UniProt P10635); assay: Metabolic stability in recombinant human CYP2D6 with NADPH; assay type: in vitro ADME; settings: CYP2D6 share of CYP metabolism, scaled by abundance and ISEF
[1] = radiolabeled pomotrelvir ref 16; cited from earlier work
CYP1A2 [2] = molecular target: T1, CYP1A2 (Homo sapiens, UniProt P05177); settings: main text summary
T1 sequence (P05177 1-516): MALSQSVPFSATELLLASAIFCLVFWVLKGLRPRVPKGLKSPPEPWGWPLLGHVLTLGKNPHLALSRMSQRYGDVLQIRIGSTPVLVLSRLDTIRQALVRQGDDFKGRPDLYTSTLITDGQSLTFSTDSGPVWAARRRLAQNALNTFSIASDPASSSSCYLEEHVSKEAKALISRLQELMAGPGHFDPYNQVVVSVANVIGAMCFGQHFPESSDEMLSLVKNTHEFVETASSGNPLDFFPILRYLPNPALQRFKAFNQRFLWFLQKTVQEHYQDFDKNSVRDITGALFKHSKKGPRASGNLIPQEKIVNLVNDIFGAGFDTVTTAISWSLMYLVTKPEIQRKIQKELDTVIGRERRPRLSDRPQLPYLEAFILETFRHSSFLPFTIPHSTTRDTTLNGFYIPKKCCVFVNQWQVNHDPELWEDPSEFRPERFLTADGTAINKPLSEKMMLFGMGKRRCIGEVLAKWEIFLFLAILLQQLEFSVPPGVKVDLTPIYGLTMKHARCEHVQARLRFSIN

CYP1A2 [3] = molecular target: T1, CYP1A2; assay: Metabolic stability in recombinant human CYP1A2 with NADPH; assay type: in vitro ADME; settings: CYP1A2 share of CYP metabolism, scaled by abundance and ISEF
[4] = tested on: Madin Darby canine kidney–breast cancer resistance protein (BCRP) cell lines; assay: MDCK‐BCRP apparent permeability; assay type: in vitro ADME; settings: MDCK‐BCRP cell line
BCRP = assay: MDCK‐BCRP apparent permeability; assay type: in vitro ADME, canine; settings: dog
Blood‐to‐plasma ratio = assay type: in vitro ADME; settings: PBPK input
CYP2C9 [5] = molecular target: T2, CYP2C9 (Homo sapiens, UniProt P11712); settings: main text summary
T2 sequence (P11712 whole entry): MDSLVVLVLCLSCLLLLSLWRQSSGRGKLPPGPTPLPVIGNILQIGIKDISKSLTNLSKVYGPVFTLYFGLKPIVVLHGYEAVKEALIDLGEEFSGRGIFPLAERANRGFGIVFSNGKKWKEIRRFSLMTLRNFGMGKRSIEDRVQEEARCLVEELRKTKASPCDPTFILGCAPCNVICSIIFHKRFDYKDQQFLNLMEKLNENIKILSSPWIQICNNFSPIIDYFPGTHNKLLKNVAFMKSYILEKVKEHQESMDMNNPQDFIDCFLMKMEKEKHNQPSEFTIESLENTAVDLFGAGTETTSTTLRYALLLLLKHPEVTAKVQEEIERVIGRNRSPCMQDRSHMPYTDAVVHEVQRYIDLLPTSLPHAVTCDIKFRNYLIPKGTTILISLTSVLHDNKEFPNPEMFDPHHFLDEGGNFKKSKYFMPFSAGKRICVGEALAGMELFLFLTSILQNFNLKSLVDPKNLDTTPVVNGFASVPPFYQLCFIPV

CYP3A4 [6] = molecular target: T3, CYP3A4 (Homo sapiens, UniProt P08684); assay: CYP3A4 inhibition in human liver microsomes; assay type: in vitro ADME
T3 sequence (P08684 whole entry): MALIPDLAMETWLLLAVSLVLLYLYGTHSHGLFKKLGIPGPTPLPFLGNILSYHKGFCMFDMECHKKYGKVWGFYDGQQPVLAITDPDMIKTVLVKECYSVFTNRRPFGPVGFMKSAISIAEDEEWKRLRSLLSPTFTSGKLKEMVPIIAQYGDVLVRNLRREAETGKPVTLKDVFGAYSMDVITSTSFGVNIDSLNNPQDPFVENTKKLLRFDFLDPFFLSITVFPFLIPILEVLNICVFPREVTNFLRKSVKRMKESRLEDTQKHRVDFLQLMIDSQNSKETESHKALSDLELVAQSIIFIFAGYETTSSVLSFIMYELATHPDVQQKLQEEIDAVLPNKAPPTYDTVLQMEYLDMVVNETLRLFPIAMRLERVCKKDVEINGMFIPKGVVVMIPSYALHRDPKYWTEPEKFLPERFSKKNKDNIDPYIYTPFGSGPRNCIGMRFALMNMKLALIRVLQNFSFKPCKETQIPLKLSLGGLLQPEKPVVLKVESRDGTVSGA

CYP2B6 [7] = assay: in vitro; settings: human
PBPK model parameters = assay: PBPK model parameters; set-up: species or system human
CYP1A2 [8] = molecular target: T1, CYP1A2; assay: biochemical
CYP2B6 [9] = molecular target: T4, CYP2B6 (Homo sapiens, UniProt P20813); settings: main text summary
T4 sequence (P20813 1-491): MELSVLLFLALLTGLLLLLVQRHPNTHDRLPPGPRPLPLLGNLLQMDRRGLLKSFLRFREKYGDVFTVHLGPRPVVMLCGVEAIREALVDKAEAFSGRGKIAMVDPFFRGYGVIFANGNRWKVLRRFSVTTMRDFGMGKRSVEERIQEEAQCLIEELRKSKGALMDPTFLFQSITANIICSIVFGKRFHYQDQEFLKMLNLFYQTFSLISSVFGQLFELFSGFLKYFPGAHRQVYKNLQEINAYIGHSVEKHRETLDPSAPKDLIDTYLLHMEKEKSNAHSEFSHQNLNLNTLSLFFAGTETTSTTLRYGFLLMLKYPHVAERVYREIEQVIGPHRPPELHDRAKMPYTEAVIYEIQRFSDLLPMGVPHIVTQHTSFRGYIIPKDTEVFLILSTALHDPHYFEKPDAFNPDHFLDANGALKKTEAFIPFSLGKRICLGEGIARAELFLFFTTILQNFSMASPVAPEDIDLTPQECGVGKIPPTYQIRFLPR

[10] = tested on: human colon adenocarcinoma clone 2 (Caco‐2); assay: Caco‐2 apparent permeability; assay type: in vitro ADME; settings: Caco‐2 cell line
[11] = Clinical DDI cohorts: pomotrelvir with ritonavir 100 mg
recombinant human CYP3A5 = recombinant human CYP3A5 (Homo sapiens, UniProt P20815); assay: Metabolic stability in recombinant human CYP3A5 with NADPH; assay type: in vitro ADME; settings: CYP3A5 share of CYP metabolism, scaled by abundance and ISEF
Chain of recombinant human CYP3A5 (P20815 whole entry): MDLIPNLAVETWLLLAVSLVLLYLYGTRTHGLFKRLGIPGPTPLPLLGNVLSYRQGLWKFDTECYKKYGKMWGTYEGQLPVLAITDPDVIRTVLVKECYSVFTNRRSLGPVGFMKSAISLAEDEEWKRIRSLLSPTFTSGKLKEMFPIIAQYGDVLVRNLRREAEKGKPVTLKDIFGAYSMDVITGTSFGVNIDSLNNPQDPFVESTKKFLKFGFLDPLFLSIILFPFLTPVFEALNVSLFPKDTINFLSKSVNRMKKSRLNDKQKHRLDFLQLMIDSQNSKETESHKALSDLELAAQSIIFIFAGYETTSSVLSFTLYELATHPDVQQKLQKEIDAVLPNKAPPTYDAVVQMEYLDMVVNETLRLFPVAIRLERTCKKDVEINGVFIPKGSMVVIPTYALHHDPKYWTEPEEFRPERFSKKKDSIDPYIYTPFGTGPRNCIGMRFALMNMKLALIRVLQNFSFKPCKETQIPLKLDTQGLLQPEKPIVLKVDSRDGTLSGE

CYP2B6 [12] = molecular target: T4, CYP2B6; assay: Metabolic stability in recombinant human CYP2B6 with NADPH; assay type: in vitro ADME; settings: CYP2B6 share of CYP metabolism, scaled by abundance and ISEF
CYP2C9 [13] = molecular target: T2, CYP2C9; assay: biochemical
CYP3A4 [14] = molecular target: T3, CYP3A4; assay: Metabolic stability in recombinant human CYP3A4 with NADPH; assay type: in vitro ADME; settings: CYP3A4 share of CYP metabolism, scaled by abundance and ISEF
[15] = Human plasma protein binding; assay type: in vitro ADME; settings: human, human plasma
Human plasma protein = Human plasma protein binding; assay type: in vitro ADME; settings: PBPK input
recombinant human CYP2E1 = recombinant human CYP2E1 (Homo sapiens, UniProt P05181); assay: Metabolic stability in recombinant human CYP2E1 with NADPH; assay type: in vitro ADME; settings: CYP2E1 share of CYP metabolism, scaled by abundance and ISEF
Chain of recombinant human CYP2E1 (P05181 whole entry): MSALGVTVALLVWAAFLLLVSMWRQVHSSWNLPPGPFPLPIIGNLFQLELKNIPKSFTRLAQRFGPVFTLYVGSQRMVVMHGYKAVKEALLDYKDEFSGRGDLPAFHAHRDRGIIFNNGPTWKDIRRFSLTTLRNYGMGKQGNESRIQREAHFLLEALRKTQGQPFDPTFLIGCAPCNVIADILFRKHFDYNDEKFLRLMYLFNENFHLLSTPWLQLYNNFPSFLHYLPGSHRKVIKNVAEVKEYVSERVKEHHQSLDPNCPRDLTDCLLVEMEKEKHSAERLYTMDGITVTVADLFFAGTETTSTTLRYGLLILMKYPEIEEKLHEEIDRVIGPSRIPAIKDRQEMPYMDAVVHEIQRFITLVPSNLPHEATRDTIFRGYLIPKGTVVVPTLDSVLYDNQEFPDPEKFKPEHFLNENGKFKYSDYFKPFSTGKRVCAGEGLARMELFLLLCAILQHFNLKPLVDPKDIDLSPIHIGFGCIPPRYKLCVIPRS

[16] = Human liver microsomal protein binding; assay type: in vitro ADME; settings: human liver microsomes
[17] = (20 mg PBI + 100 mg RTV, SD)/(100 mg POMO, SD)
[18] = (50 mg PBI + 100 mg RTV, Day1)/(100 mg POMO, SD)
[19] = (50 mg PBI + 100 mg RTV, Day5)/(100 mg POMO, SD), AUClast/Dose over AUCinf/Dose
[20] = (50 mg PBI + 100 mg RTV, Day10)/(100 mg POMO, SD), AUClast/Dose over AUCinf/Dose

Chain of CYP2D6 (P10635 whole entry): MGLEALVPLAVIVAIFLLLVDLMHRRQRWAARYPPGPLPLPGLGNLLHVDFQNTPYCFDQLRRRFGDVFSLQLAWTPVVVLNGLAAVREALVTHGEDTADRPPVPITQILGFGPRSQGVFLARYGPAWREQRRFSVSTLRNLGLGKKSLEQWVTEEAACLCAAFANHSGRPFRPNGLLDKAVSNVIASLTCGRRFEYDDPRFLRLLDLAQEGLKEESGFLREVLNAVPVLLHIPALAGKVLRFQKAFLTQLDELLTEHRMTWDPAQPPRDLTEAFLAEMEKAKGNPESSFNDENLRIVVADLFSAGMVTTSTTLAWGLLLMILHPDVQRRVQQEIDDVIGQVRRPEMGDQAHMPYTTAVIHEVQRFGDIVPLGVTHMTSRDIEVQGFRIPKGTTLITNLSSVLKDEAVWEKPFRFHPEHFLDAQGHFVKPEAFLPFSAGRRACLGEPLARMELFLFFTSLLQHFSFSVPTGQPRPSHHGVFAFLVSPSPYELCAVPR

In the case of N#C[C@H](C[C@@H]1CCCNC1=O)NC(=O)[C@H](CC1CC1)NC(=O)c1cc2cccc(Cl)c2[nH]1 [Pomotrelvir, pomotrelvir], the “Relative Contribution (fm)” value (CYP2D6) is given as “negligible”, the “major route of metabolism and clearance” value [1] is given as “nonhepatic hydrolysis” and the “urinary excretion of intact drug” value [1] is given as “Minimal”. The “inhibitory effect on CYP1A2 in vitro (in words)” value (CYP1A2 [2]) was “weak to moderate inhibition”, the “Relative Contribution (fm)” value (CYP1A2 [3]) was “negligible” and the efflux ratio [4] was “large”. The Papp (BCRP) was 1.01 ×10⁻⁶ cm/s, the “B:P” value (Blood‐to‐plasma ratio) was 0.93 and the “inhibitory effect on CYP2C9 in vitro (in words)” value (CYP2C9 [5]) was “weak to moderate inhibition”. For the same molecule, the pKi (CYP3A4 [6]) was 4.46, the “inhibitory effect on CYP3A4 in vitro (in words)” value (CYP3A4 [6]; main text summary) was “time‐dependent inhibition (TDI)” and the EC50 at 72 h (CYP2B6 [7]) was 4.84 µM. For the same molecule, the fmCYP3A4 (PBPK model parameters; PBPK input, set to match the ritonavir DDI study) was 0.25, the “CYP3A4 CLint (unbound)” value (PBPK model parameters; retrograde model from CL/F) was 0.376 µL/min/pmol and the fmCYP3A4 (PBPK model parameters; value to match the ritonavir DDI study) was 25%. For the same molecule, the pKi (CYP1A2 [8]) was 5.04, the “inhibitory effect on CYP2B6 in vitro (in words)” value (CYP2B6 [9]) was “No inhibitory effect” and the efflux ratio [10] was “large”. For the same molecule, the “change of dose‐normalized systemic exposure in the presence of ritonavir” value ([11]; 100 mg ritonavir, all cohorts and parameters) was 0.92–1.54 fold, the “AUCinf/dose GMR (90% CI)” value [11, 17] was 0.92 (0.67, 1.26) and the “AUClast/dose GMR (90% CI)” value [11, 17] was 1.06 (0.68, 1.65). For the same molecule, the “Cmax/dose GMR (90% CI)” value [11, 17] was 0.97 (0.76, 1.22), the “AUCinf/dose GMR (90% CI)” value [11, 18] was 1.54 (1.13, 2.1) and the “AUClast/dose GMR (90% CI)” value [11, 18] was 1.38 (1.08, 1.76). For the same molecule, the “Cmax/dose GMR (90% CI)” value [11, 18] was 1.46 (1.16, 1.84), the “Cmax/dose GMR (90% CI)” value ([11]; (50 mg PBI + 100 mg RTV, Day5)/(100 mg POMO, SD)) was 1.3 (0.9, 1.89) and the “AUCinf/dose GMR (90% CI)” value [11, 19] was 1.34 (0.96, 1.87) ^a. The “AUClast/dose GMR (90% CI)” value [11, 19] was 1.34 (0.96, 1.87) ^a, the “Cmax/dose GMR (90% CI)” value ([11]; (50 mg PBI + 100 mg RTV, Day10)/(100 mg POMO, SD)) was 1.41 (1.05, 1.91) and the “AUCinf/dose GMR (90% CI)” value [11, 20] was 1.37 (1.05, 1.79) ^b. The “AUClast/dose GMR (90% CI)” value [11, 20] was 1.37 (1.05, 1.79) ^b, the “increase in exposure upon coadministration with ritonavir” value ([11]; single or multiple doses) was < 50% and the “Relative Contribution (fm)” value (recombinant human CYP3A5) was “negligible”. The “Relative Contribution (fm)” value (CYP2B6 [12]) was “negligible”, the pKi (CYP2C9 [13]) was 4.91 and the “Relative Contribution (fm)” value (CYP3A4 [14]) was 88%. For the same molecule, the fraction unbound [15] was 0.044, the Main binding protein (Human plasma protein) was “HSA” and the “Relative Contribution (fm)” value (recombinant human CYP2E1) was “negligible”. The “contribution of nonhepatic, presystemic hydrolysis to apparent clearance” value (following oral dosing, thought to contribute) was ~ 50%, the “CL/F (mean apparent oral clearance)” value (oral dose of 300 mg administered with food (FIH study)) was 33.19 L/h and the fraction unbound [16] was 0.85.
